Results reported in ChEMBL document CHEMBL1201862, “PubChem BioAssay data set” (2004).
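Protocol summary: plate cells (96-well), add compound at 5 concentrations, incubate 48 h, interpolate endpoints linearly. GI50 = concentration required for 50% inhibition of growth.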 Calls of active or inactive are those of the source. Cut-off read from the data, not from the text of the source: active = GI50 up to about 1.1 µM and inactive = higher.

Assays:
Assay in all cases: growth of human tumour cells (NCI), 48 h
[1] = test system: A498
[2] = test system: ACHN
[3] = test system: HCC 2998
[4] = test system: HL-60
[5] = test system: Hs-578T
[6] = test system: IGROV-1
[7] = test system: K562
[8] = test system: KM12
[9] = test system: LOX IMVI
[10] = test system: MDA-MB-231
[11] = test system: MDA-MB-435
[12] = test system: Malme-3M
[13] = test system: NCI-H23
[14] = test system: NCI-H460
[15] = test system: OVCAR-8
[16] = test system: SK-MEL-28
[17] = test system: SNB-19
[18] = test system: SW-620
[19] = test system: T47D
[20] = test system: UACC-62

SMILES	GI50 [1]	GI50 [2]	GI50 [3]	GI50 [4]	GI50 [5]	GI50 [6]	GI50 [7]	GI50 [8]	GI50 [9]	GI50 [10]	GI50 [11]	GI50 [12]	GI50 [13]	GI50 [14]	GI50 [15]	GI50 [16]	GI50 [17]	GI50 [18]	GI50 [19]	GI50 [20]
CCN1C(=O)C(C)S/C1=N\NC(=O)CSc1nc2ccccc2c(=O)n1CC (stereo not given)	> 100 µM (inactive)	> 100 µM (inactive)	> 100 µM (inactive)	> 100 µM (inactive)	> 100 µM (inactive)	> 100 µM (inactive)	98.6 µM (inactive)	> 100 µM (inactive)	> 100 µM (inactive)	> 100 µM (inactive)	> 100 µM (inactive)	> 100 µM (inactive)	> 100 µM (inactive)	3.12 µM (inactive)	> 100 µM (inactive)	> 100 µM (inactive)	> 100 µM (inactive)	> 100 µM (inactive)	> 100 µM (inactive)	> 100 µM (inactive)
O=C(c1ccsc1)c1cc2c(s1)C(=O)c1ccsc1C2=O	1.58 µM (inactive)	0.0959 µM (active)	0.537 µM (active)	1.48 µM (inactive)	0.209 µM (active)	0.204 µM (active)	0.184 µM (active)	0.191 µM (active)	0.0211 µM (active)	0.0755 µM (active)	0.0271 µM (active)	0.0202 µM (active)	0.137 µM (active)	0.184 µM (active)	0.178 µM (active)	0.142 µM (active)	0.177 µM (active)	0.17 µM (active)	0.235 µM (active)	0.194 µM (active)
Oc1cc(Br)cc2cccnc12	8.36 µM (inactive)	2.63 µM (inactive)	28.2 µM (inactive)	0.237 µM (active)	1.7 µM (inactive)	1.71 µM (inactive)	0.82 µM (active)	4.7 µM (inactive)	0.908 µM (active)	2.52 µM (inactive)	7.29 µM (inactive)	3.05 µM (inactive)	2.58 µM (inactive)	1.31 µM (inactive)	1.29 µM (inactive)	17.3 µM (inactive)	15.6 µM (inactive)	2.56 µM (inactive)	3.59 µM (inactive)	1.92 µM (inactive)
CCOc1ccc(C2Oc3c(cccc3OC)C=C2[N+](=O)[O-])cc1OCC (stereo not given)	9.57 µM (inactive)	3.71 µM (inactive)	20.7 µM (inactive)	2.14 µM (inactive)	5.51 µM (inactive)	4.92 µM (inactive)	1.87 µM (inactive)	5.43 µM (inactive)	1.97 µM (inactive)	2.73 µM (inactive)	2.82 µM (inactive)	2.3 µM (inactive)	6.67 µM (inactive)	7.28 µM (inactive)	2 µM (inactive)	2.24 µM (inactive)	15.2 µM (inactive)	2.06 µM (inactive)	15.7 µM (inactive)	5.32 µM (inactive)
O=C1/C(=C/C=C/c2ccccc2)CCC1CNc1ccccc1 (stereo not given)	> 27 µM (inactive)	76.9 µM (inactive)	> 68.5 µM (inactive)	4.07 µM (inactive)	> 67 µM (inactive)	23.4 µM (inactive)	2.71 µM (inactive)	14.9 µM (inactive)	18.6 µM (inactive)	22 µM (inactive)	40.8 µM (inactive)	58.6 µM (inactive)	27.7 µM (inactive)	> 88.7 µM (inactive)	37.4 µM (inactive)	44.6 µM (inactive)	> 55 µM (inactive)	18.4 µM (inactive)	26.2 µM (inactive)	50.4 µM (inactive)
Nc1ccc(SC23CC4CC(CC(C4)C2)C3)cc1	> 100 µM (inactive)	> 100 µM (inactive)	> 100 µM (inactive)	> 100 µM (inactive)	> 100 µM (inactive)	> 100 µM (inactive)	> 100 µM (inactive)	> 100 µM (inactive)	> 100 µM (inactive)	> 100 µM (inactive)	> 100 µM (inactive)	> 100 µM (inactive)	> 100 µM (inactive)	> 100 µM (inactive)	> 100 µM (inactive)	> 100 µM (inactive)	> 100 µM (inactive)	> 100 µM (inactive)	> 100 µM (inactive)	> 100 µM (inactive)
Cn1c2ccccc2c(=O)c2cccc(C(=O)NC(CS)C(=O)O)c21 (stereo not given)	> 100 µM (inactive)	> 100 µM (inactive)	> 100 µM (inactive)	< 0.01 µM (active)	> 100 µM (inactive)	> 100 µM (inactive)	52.1 µM (inactive)	> 100 µM (inactive)	53.6 µM (inactive)	60.8 µM (inactive)	> 100 µM (inactive)	> 100 µM (inactive)	> 100 µM (inactive)	> 100 µM (inactive)	> 100 µM (inactive)	> 100 µM (inactive)	> 100 µM (inactive)	84.9 µM (inactive)	> 100 µM (inactive)	> 100 µM (inactive)
O=C(CBr)NCCc1c[nH]c2ccccc12	19 µM (inactive)	1.73 µM (inactive)	9.95 µM (inactive)	1.7 µM (inactive)	5.14 µM (inactive)	1.83 µM (inactive)	1.44 µM (inactive)	1.93 µM (inactive)	0.482 µM (active)	2.23 µM (inactive)	1.52 µM (inactive)	2.94 µM (inactive)	1.46 µM (inactive)	6.44 µM (inactive)	3.33 µM (inactive)	3.49 µM (inactive)	6.17 µM (inactive)	2.03 µM (inactive)	1.74 µM (inactive)	1.75 µM (inactive)
C[C@]12CC[C@H](O)C[C@H]1CC[C@@H]1[C@@H]2CC[C@]2(C)[C@@H](C3=CC(=O)OC3)[C@@H](O)C[C@]12O [GITOXIGENIN]	2.72 µM (inactive)	0.451 µM (active)	2.47 µM (inactive)	1.62 µM (inactive)	0.968 µM (active)	2.86 µM (inactive)	3.38 µM (inactive)	4.85 µM (inactive)	2.9 µM (inactive)	4.93 µM (inactive)	3.01 µM (inactive)	1.77 µM (inactive)	0.682 µM (active)	0.499 µM (active)	2.93 µM (inactive)	5.13 µM (inactive)	4.45 µM (inactive)	3.18 µM (inactive)	3.65 µM (inactive)	2.62 µM (inactive)
